Source: patent US9688637B2, “3-amidobenzamides and uses thereof for increasing cellular levels of A3G and other A3 family members” (Northwestern University, priority 2014, dated 2017)

What was measured:
A3G-Luc = A3G-Luc luciferase screen in 293T cells stably expressing A3G-Luc; format: cell-based, human; details: 48 hrs, DMSO = 100%
Description: This background led to construction of cell lines to use in a search for compounds that might boost levels of A3s in the HIV target cells of the majority of HIV-infected persons who are non-controllers. The goal is to test a strategy of using such a booster in acute/early infection to prevent the hypothesized decrease of A3G and related A3s in an effort to increase “control” in persons lacking HLA B57/27-associated control. […] 293T and TZM-bl cells were maintained in DMEM (containing 4.5 g/liter glucose, L-glutamine, and sodium pyruvate) medium plus 10% fetal bovine serum, 50 IU/ml penicillin, and 50 μg/ml streptomycin at 37° C. and 5% CO2 throughout the experiments. […]. After collecting viral supernatant, 293T cells were infected with viral particles harboring the A3G-Luc expressing vector and selected with puromycin (0.75 μg/ml) for three days. Ten single cell clones of stable cells were isolated and tested for expression of A3G-Luc protein by both immunoblotting using antibody against A3G and measuring luciferase activity. Expressions in cell lines used for subsequent experiments are depicted in FIG. 2, upper panel. The A3G-Luc fusion protein was sensitive to Vif-mediated degradation (FIG. 3). Similar cells lines stably expressing A3F were constructed with the same methods (not shown).
To screen compounds that can boost A3G levels, 293T cells (25,000 cells per well in 96-well plate) stably expressing A3G-Luc protein or A3G-Luc/Vif proteins were plated. […] After 48 hrs of incubation with compounds culture medium was removed from each well and replaced with 100 μl of Britelite Plus luciferase assay substrate (PerkinElmer). Following 5 min. of incubation at room temperature, 75 μl of each cell lysate was transferred to a 96-well OptiPlate 96 (PerkinElmer) and luminescence was measured in a VICTOR X2 Multilabel Reader (PerkinElmer). Relative activity of compounds for their boosting capability A3G-Luc activity was calculated by plotting DMSO-treated A3G-Luc or A3G-Luc/Vif cells as 100%. Cellular cytotoxicity was measured by counting number of cells after 48 hrs of incubation with compounds compared to DMSO treated cells.

A3G-Luc/Vif [1] = assay: A3G-Luc/Vif luciferase screen in 293T cells stably co-expressing A3G-Luc and HIV-1 Vif; format: cell-based, human; details: 30 μM, 48 hrs, DMSO = 100%
BC-1 = BC-1 primary effusion lymphoma cell proliferation; format: cell-based; details: primary effusion lymphoma (PEL) cell line (FIG. 10)
Description: FIG. 10. A primary effusion lymphoma (PEL) cell line (BC-1, infected with both Kaposi's sarcoma herpesvirus and Epstein Barr Virus) is also killed by the listed compounds.

A3G-Luc/Vif [2] = assay: A3G-Luc/Vif luciferase screen in 293T cells stably co-expressing A3G-Luc and HIV-1 Vif; format: cell-based, human; details: 10 μM, 48 hrs, DMSO = 100%
Experimental: FIG. 6. 293T cell clone #6 stably co-expressing A3G-Luciferase fusion protein together with HIV-1 Vif was used. Small molecule compounds were tested for their effects on stability of A3G and inhibition of Vif activity against A3G by measuring luciferase activity, relative to treatment with control DMSO only. The relative % luciferase activity was higher after treatment with NU compounds than DMSO.
[…]. After sorting, expression of both A3G-Luc and Vif was confirmed by immunoblotting using antibody against both A3G and Vif.
(§1) To screen compounds that can boost A3G levels, 293T cells (25,000 cells per well in 96-well plate) stably expressing A3G-Luc protein or A3G-Luc/Vif proteins were plated. After 24 hrs post plating culture medium was replaced with 100 μl of new medium containing either DMSO as a control or various compounds (10 μM concentration). After 48 hrs of incubation with compounds culture medium was removed from each well and replaced with 100 μl of Britelite Plus luciferase assay substrate (PerkinElmer). Following 5 min. of incubation at room temperature, 75 μl of each cell lysate was transferred to a 96-well OptiPlate 96 (PerkinElmer) and luminescence was measured in a VICTOR X2 Multilabel Reader (PerkinElmer). Relative activity of compounds for their boosting capability A3G-Luc activity was calculated by plotting DMSO-treated A3G-Luc or A3G-Luc/Vif cells as 100%. Cellular cytotoxicity was measured by counting number of cells after 48 hrs of incubation with compounds compared to DMSO treated cells.

293T cells = assay: Cellular cytotoxicity by counting cells after 48 hrs with compound vs DMSO; format: cell-based; details: for Cytotoxicity: Cell Proliferation Blocked at: concentration at which proliferation was blocked, 48 hrs
Experimental: as §1

A3G = A3G (Homo sapiens, UniProt Q9HC16); details: described by others (ref. 39); cited from earlier work
Sequence of A3G (Q9HC16 whole entry): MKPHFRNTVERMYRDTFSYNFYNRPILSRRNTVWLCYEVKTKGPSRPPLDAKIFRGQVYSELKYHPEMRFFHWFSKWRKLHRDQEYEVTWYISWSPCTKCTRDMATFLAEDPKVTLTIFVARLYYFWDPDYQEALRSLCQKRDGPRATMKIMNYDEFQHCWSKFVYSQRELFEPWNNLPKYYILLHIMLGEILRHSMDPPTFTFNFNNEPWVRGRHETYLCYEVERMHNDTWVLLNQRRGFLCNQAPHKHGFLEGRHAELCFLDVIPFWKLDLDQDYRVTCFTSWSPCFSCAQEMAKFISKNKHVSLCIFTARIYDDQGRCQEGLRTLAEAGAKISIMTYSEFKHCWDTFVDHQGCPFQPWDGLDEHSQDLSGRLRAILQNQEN

Structure (SMILES) | A3G-Luc Activity (% of Relative Light Units compared to DMSO treated control) (A3G-Luc; 30 μM) [%] | Vif-A3G-Luc Activity (% of RLUs compared to DMSO treated control) (A3G-Luc/Vif [1]) [%] | A3G-Luc Activity (% of Relative Light Units compared to DMSO treated control) (A3G-Luc; 10 μM) [%] | further results
CCC(=O)Nc1cc(C(=O)Nc2cc(OC)c(OC)c(OC)c2)ccc1OC [NU-57] | 87 | 74 |  | 
COc1ccc(C(=O)Nc2cc(OC)c(OC)c(OC)c2)cc1NC(=O)C(C)C [NU-56] | 114 | 93 |  | 
COc1ccc(C(=O)Nc2ccc(Cl)c(Cl)c2)cc1N(C)C(=O)C(C)C [NU-611] |  |  | 67 | BC-1 cell proliferation (BC-1): inhibit BC-1 cell proliferation; Vif-A3G-Luc Activity (% of RLUs compared to DMSO treated control) (A3G-Luc/Vif [2]): 75%
CC(C)C(=O)Nc1cc(C(=O)Nc2ccc(Cl)c(Cl)c2)ccc1OCCOCCNC(=O)CCCCC1SC[C@@H]2NC(=O)N[C@H]12 (some centres unmarked) [NU-127] |  |  | 68 | Cytotoxicity: Cell Proliferation Blocked at (293T cells): Cell Proliferation Blocked at 10 μM
COc1ccc(C(=O)Nc2cc(OC)c(OC)c(OC)c2)cc1NC(=O)C(C)Br (centres unmarked) [IMB-26, reference compound] |  |  |  | toxicity to 293T cells (293T cells): toxic; binding to A3G and degradation of A3G by Vif (A3G): directly bind to A3G and prevent its degradation by Vif
COc1ccc(NC(=O)c2ccc(OC)c(NC(=O)C(C)C)c2)cc1 [NU-54] | 137 | 116 |  | 
CC(C)(C)OC(=O)NCCOCCOc1ccc(C(=O)Nc2ccc(Cl)c(Cl)c2)cc1NC(=O)CC1CC1 [NU-126] |  |  | 4.8 | Cytotoxicity: Cell Proliferation Blocked at (293T cells): Cell Proliferation Blocked at 10 μM
COc1ccc(C(=O)Nc2cc(OC)c(OC)c(OC)c2)cc1NC(C)=O [NU-58] | 123 | 93 |  | 
